Consider 1 compound from PMC6271698, “Immobilization of Horseradish Peroxidase on NH2-Modified Magnetic Fe3O4/SiO2 Particles and Its Application in Removal of 2,4-Dichlorophenol” (Molecules, 2014).

The assay concerns T1, Horseradish peroxidase (HRP).
T1 construct: gene PRXC1A; free enzyme
Kind of assay: colorimetric peroxidase assay, Lineweaver-Burk plot. The format is biochemical. The note with it: free enzyme, not immobilised; co-substrate H2O2 (concentration not stated); pH and temperature not stated; read-out: Kmapp.

In the case of `CCN(CC)c1ccc(N)cc1` [DPD, N,N-diethyl-p-phenylenediaminesulfate], the Km turned out to be 500 µM.
